Data published in ChEMBL document CHEMBL1201862, “PubChem BioAssay data set” (2004).
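Results reflect a 48-hour exposure of cells in 96-well plates to compound at five concentrations. The concentration for 50% growth inhibition is given as GI50.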 Activity calls are given as the source filed them. Rule as the data show it: active = GI50 up to about 1.1 µM and inactive = higher.

Key:
Assay in all cases: NCI-60 cell line screen, 48 h
786-0 = tested on: 786-0
HL-60 = tested on: HL-60
Hs-578T = tested on: Hs-578T
Malme-3M = tested on: Malme-3M
RPMI-8226 = tested on: RPMI-8226
SW-620 = tested on: SW-620
RXF 393 = tested on: RXF 393
SF-295 = tested on: SF-295
HT-29 = tested on: HT-29
DU-145 = tested on: DU-145
PC-3 = tested on: PC-3
OVCAR-4 = tested on: OVCAR-4
MDA-MB-435 = tested on: MDA-MB-435
HOP-92 = tested on: HOP-92
IGROV-1 = tested on: IGROV-1
NCI-H226 = tested on: NCI-H226
CAKI-1 = tested on: CAKI-1
ACHN = tested on: ACHN
SK-MEL-28 = tested on: SK-MEL-28
OVCAR-5 = tested on: OVCAR-5
SNB-75 = tested on: SNB-75
TK-10 = tested on: TK-10
SN12C = tested on: SN12C
CCRF-CEM = tested on: CCRF-CEM
HCT-15 = tested on: HCT-15
SK-MEL-5 = tested on: SK-MEL-5
SK-OV-3 = tested on: SK-OV-3
NCI-H460 = tested on: NCI-H460
COLO 205 = tested on: COLO 205
MCF7 = tested on: MCF7
NCI-H23 = tested on: NCI-H23
SF-539 = tested on: SF-539
NCI-H522 = tested on: NCI-H522
HCT-116 = tested on: HCT-116
A549 = tested on: A549
SNB-19 = tested on: SNB-19
SF-268 = tested on: SF-268
HCC 2998 = tested on: HCC 2998
UACC-257 = tested on: UACC-257
KM12 = tested on: KM12
MDA-MB-231 = tested on: MDA-MB-231
HOP-62 = tested on: HOP-62
NCI/ADR-RES = tested on: NCI/ADR-RES
SK-MEL-2 = tested on: SK-MEL-2
T47D = tested on: T47D
U-251 = tested on: U-251
M14 = tested on: M14
OVCAR-3 = tested on: OVCAR-3
K562 = tested on: K562
UACC-62 = tested on: UACC-62
SR = tested on: SR
EKVX = tested on: EKVX
MDA-N = tested on: MDA-N
BT-549 = tested on: BT-549
MOLT-4 = tested on: MOLT-4
OVCAR-8 = tested on: OVCAR-8
UO-31 = tested on: UO-31
LOX IMVI = tested on: LOX IMVI

COc1ccc2[nH]c3c(C)c4ncccc4c(C)c3c2c1
GI50 (786-0): 1.52 µM (inactive) | GI50 (HL-60): 3.01 µM (inactive) | GI50 (Hs-578T): > 10 µM (inactive) | GI50 (Malme-3M): 1.65 µM (inactive) | GI50 (RPMI-8226): 3.44 µM (inactive) | GI50 (SW-620): 1.98 µM (inactive) | GI50 (RXF 393): 3.59 µM (inactive) | GI50 (SF-295): 2.43 µM (inactive) | GI50 (HT-29): 2.22 µM (inactive) | GI50 (DU-145): 7.55 µM (inactive) | GI50 (PC-3): 6.11 µM (inactive) | GI50 (OVCAR-4): 7.43 µM (inactive) | GI50 (MDA-MB-435): 1.82 µM (inactive) | GI50 (HOP-92): 8.34 µM (inactive) | GI50 (IGROV-1): > 10 µM (inactive) | GI50 (NCI-H226): 4.41 µM (inactive) | GI50 (CAKI-1): > 10 µM (inactive) | GI50 (ACHN): 5.2 µM (inactive) | GI50 (SK-MEL-28): 1.99 µM (inactive) | GI50 (OVCAR-5): 5.61 µM (inactive) | GI50 (SNB-75): 9.91 µM (inactive) | GI50 (TK-10): > 10 µM (inactive) | GI50 (SN12C): 4.78 µM (inactive) | GI50 (CCRF-CEM): 3.85 µM (inactive) | GI50 (HCT-15): 2.99 µM | GI50 (SK-MEL-5): > 10 µM (inactive) | GI50 (SK-OV-3): > 10 µM (inactive) | GI50 (NCI-H460): 2.12 µM (inactive) | GI50 (COLO 205): 6.95 µM (inactive) | GI50 (MCF7): 2.02 µM (inactive) | GI50 (NCI-H23): > 10 µM (inactive) | GI50 (SF-539): 4.73 µM (inactive) | GI50 (NCI-H522): > 10 µM (inactive) | GI50 (HCT-116): 3.4 µM (inactive) | GI50 (A549): 2.18 µM (inactive) | GI50 (SNB-19): > 10 µM (inactive) | GI50 (SF-268): > 10 µM (inactive) | GI50 (HCC 2998): 8.97 µM (inactive) | GI50 (UACC-257): > 10 µM (inactive) | GI50 (KM12): 1.93 µM (inactive) | GI50 (MDA-MB-231): > 10 µM (inactive) | GI50 (HOP-62): 6.84 µM (inactive) | GI50 (NCI/ADR-RES): 3.12 µM (inactive) | GI50 (SK-MEL-2): > 10 µM (inactive) | GI50 (T47D): > 10 µM (inactive) | GI50 (U-251): 8.43 µM (inactive) | GI50 (M14): 1.64 µM (inactive) | GI50 (OVCAR-3): 2.71 µM (inactive) | GI50 (K562): 3.68 µM (inactive) | GI50 (UACC-62): > 10 µM (inactive) | GI50 (SR): 5.22 µM (inactive) | GI50 (EKVX): 4.97 µM (inactive) | GI50 (MDA-N): 6.81 µM (inactive) | GI50 (BT-549): > 10 µM (inactive) | GI50 (MOLT-4): 4.04 µM (inactive) | GI50 (OVCAR-8): 3.73 µM (inactive)

C=C1CC(C)(COc2ccc3c(C)cc(=O)oc3c2)OC1=O (stereo not drawn)
GI50 (786-0): 1.48 µM (inactive) | GI50 (HL-60): 0.232 µM (active) | GI50 (Hs-578T): 3.56 µM (inactive) | GI50 (Malme-3M): 1.29 µM (inactive) | GI50 (RPMI-8226): 0.414 µM (active) | GI50 (SW-620): 0.431 µM (active) | GI50 (SF-295): 4.34 µM (inactive) | GI50 (HT-29): 1.03 µM (active) | GI50 (DU-145): 2.36 µM (inactive) | GI50 (PC-3): 2.39 µM (inactive) | GI50 (OVCAR-4): 2.62 µM (inactive) | GI50 (MDA-MB-435): 1.28 µM (inactive) | GI50 (HOP-92): 1.09 µM (active) | GI50 (IGROV-1): 2.47 µM (inactive) | GI50 (NCI-H226): 8.69 µM (inactive) | GI50 (CAKI-1): 1.3 µM (inactive) | GI50 (ACHN): 2.08 µM (inactive) | GI50 (SK-MEL-28): 2.72 µM (inactive) | GI50 (OVCAR-5): 4.22 µM (inactive) | GI50 (SNB-75): 5.42 µM (inactive) | GI50 (TK-10): 1.26 µM (inactive) | GI50 (SN12C): 3.86 µM (inactive) | GI50 (CCRF-CEM): 0.229 µM (active) | GI50 (UO-31): 6.7 µM (inactive) | GI50 (HCT-15): 1.47 µM | GI50 (SK-MEL-5): 1.31 µM (inactive) | GI50 (SK-OV-3): 3.73 µM (inactive) | GI50 (NCI-H460): 5.3 µM (inactive) | GI50 (LOX IMVI): 1.59 µM (inactive) | GI50 (COLO 205): 0.951 µM (active) | GI50 (MCF7): 0.706 µM (active) | GI50 (NCI-H23): 1.57 µM (inactive) | GI50 (SF-539): 0.951 µM (active) | GI50 (NCI-H522): 0.276 µM (active) | GI50 (HCT-116): 0.778 µM (active) | GI50 (A549): 8.79 µM (inactive) | GI50 (SNB-19): 13.7 µM (inactive) | GI50 (SF-268): 4.41 µM (inactive) | GI50 (HCC 2998): 3.5 µM (inactive) | GI50 (UACC-257): 1.25 µM (inactive) | GI50 (KM12): 3.66 µM (inactive) | GI50 (MDA-MB-231): 3.92 µM (inactive) | GI50 (HOP-62): 13.8 µM (inactive) | GI50 (NCI/ADR-RES): 1.95 µM (inactive) | GI50 (SK-MEL-2): 1.65 µM (inactive) | GI50 (T47D): 1.74 µM (inactive) | GI50 (U-251): 10.9 µM (inactive) | GI50 (M14): 1.34 µM (inactive) | GI50 (OVCAR-3): 2.31 µM (inactive) | GI50 (K562): 0.313 µM (active) | GI50 (UACC-62): 1.69 µM (inactive) | GI50 (SR): 0.918 µM (active) | GI50 (EKVX): 4.7 µM (inactive) | GI50 (MDA-N): 0.695 µM (active) | GI50 (BT-549): 2.31 µM (inactive) | GI50 (MOLT-4): 1.47 µM (inactive) | GI50 (OVCAR-8): 3.17 µM (inactive)
